Columns and labels:
CF-1 male albino mice = assay: Maximal Electroshock Test (MES); assay type: in vivo; conditions: oral; for MES Activity (in words): time not stated
Protocol: Anticonvulsant activity was determined using the MES test, run according to the procedure described in detail below. Swinyard E A, Woodhead J H, White H S, Franklin M R. Experimental selection, quantification, and evaluation of anticonvulsants. In Levy R H, et al., eds. Antiepileptic Drugs. 3rd ed. New York: Raven Press, 1989:85-102
CF-1 male albino mice (25-35 g) were fasted for 16 hours before testing. Mice were randomly selected into control and test groups, with the animals dosed with vehicle or test compound, at varying concentrations, respectively. On the study date, at 30 minutes prior to shock, the mice were orally dosed with vehicle (0.5% methylcellulose) or test compound (100-300 mg/kg). Seizures were induced by trans-corneal electric shock using a 60-Hz alternating current, 50 mA, delivered for 0.2 sec. The mice in the test groups were subjected to electrical stimulus at time intervals between 15 minutes and 4 hours following administration of test compound. […] The test was complete when the entire course of the convulsion has been observed (typically, less than 1 minute after electrical stimulation), and the mice were then immediately euthanized by carbon dioxide inhalation.
Abolition of the full body tonic extensor component of the seizure was taken as the endpoint of the test. […] The ED50 value of the test compound (calculated when appropriate) was the calculated dose required to block the hind limb tonic-extensor component of the MES-induced seizure in 50% of the rodents tested. A probit analysis was used to calculate the ED50 and 95% fiducial limits (FL).
Representative compounds of the present invention were tested according to the procedure described above, with results as listed in Table 4 below. Results are listed as number of mice with full body tonic extension prevented/total number of mice tested @ time (at a given test compound dosage level).

carbonic anhydrase = conditions: background statement, no assay details; cited from earlier work

Compound | melting point | other results
NS(=O)(=O)NCCC1COc2ccccc2O1 (stereo not shown) [ID No. 16, 2-(2,3-Dihydro-benzo[1,4]dioxin-2-yl)-ethylsulfamide] | 101 to 103 °C | MES Activity: number of mice with full body tonic extension prevented/total number of mice tested (CF-1 male albino mice; 300 mg/kg, @ 0.5 h): 5/5 @ 0.5 h (300 mg/kg)
CC1(C)O[C@@H]2[C@@H](CO[C@@]3(COS(N)(=O)=O)OC(C)(C)O[C@@H]23)O1 [Topiramate] |  | carbonic anhydrase inhibition (carbonic anhydrase): single digit micromolar
NS(=O)(=O)NC[C@H]1COc2ccccc2O1 [ID No. 4, (2S)-(−)-N-(2,3-Dihydro-benzo[1,4]dioxin-2-ylmethyl)-sulfamide] |  | MES Activity: number of mice with full body tonic extension prevented/total number of mice tested (CF-1 male albino mice; 300 mg/kg, @ 1 h): 5/5 @ 1 h (300 mg/kg)
Cc1ccc2c(c1)O[C@@H](CNS(N)(=O)=O)CO2 [ID No. 19, (2S)-(−)-N-(7-Methyl-2,3-dihydro-benzo[1,4]dioxin-2-ylmethyl)-sulfamide] |  | MES Activity: number of mice with full body tonic extension prevented/total number of mice tested (CF-1 male albino mice; 300 mg/kg, @ 0.5 h): 5/5 @ 0.5 h (300 mg/kg)
Nc1ccc2c(c1)O[C@@H](CNS(N)(=O)=O)CO2 [ID No. 36, (2S)-(−)-N-(7-Amino-2,3-dihydro-benzo[1,4]dioxin-2-ylmethyl)-sulfamide] |  | MES Activity (in words) (CF-1 male albino mice; 100 mg/kg): Inactive @ 100 and 300 mg/kg; MES Activity (in words) (CF-1 male albino mice; 300 mg/kg): Inactive @ 100 and 300 mg/kg
NS(=O)(=O)OC[C@H]1COc2cc(Cl)c(Cl)cc2O1 [ID No. 27, Sulfamic acid, 6.7 dichloro-2,3-dihydro-benzo[1,4]dioxin-2-ylmethyl ester] | 109 to 111 °C | MES Activity: number of mice with full body tonic extension prevented/total number of mice tested (CF-1 male albino mice; 100 mg/kg, @ 4 h): 5/5 @ 4 h (100 mg/kg)
NS(=O)(=O)NC[C@H]1COc2cc(Cl)c(Cl)cc2O1 [ID No. 29, (2S)-(−)-N-(6,7 Dichloro-2,3-dihydro-benzo[1,4]dioxin-2-ylmethyl)-sulfamide] | 119 to 121 °C | MES Activity: number of mice with full body tonic extension prevented/total number of mice tested (CF-1 male albino mice; 100 mg/kg, @ 4 h): 3/5 @ 4 h (100 mg/kg)
CN(C)S(=O)(=O)NCC1COc2ccccc2O1 (stereo not shown) [ID No. 6, N-(2,3-Dihydro-benzo[1,4]dioxin-2-ylmethyl)-N′,N′ dimethylsulfamide] | 76 to 78 °C | 

Second part, led by results:

melting point | Compound | other results
113 to 116 °C | NS(=O)(=O)OC[C@H]1COc2cc(Cl)ccc2O1 (stereo in doubt) [ID No. 12, Sulfamic acid, 6-chloro-2,3-dihydro-benzo[1,4]dioxin-2-ylmethyl ester] | 
100 to 101 °C | NS(=O)(=O)NCC1CCc2ccccc2O1 (stereo not shown) [ID No. 10, Chroman-2-ylmethylsulfamide] | 
97 to 98 °C | CN(CC1COc2ccccc2O1)S(N)(=O)=O (stereo not shown) [ID No. 7, N-(2,3-Dihydro-benzo[1,4]dioxin-2-ylmethyl)-N-methylsulfamide] | 
87 to 90 °C | NS(=O)(=O)OCC1CCc2ccccc2O1 (stereo not shown) [ID No. 11, Chroman-2-ylmethylsulfamate] | 
